# According to US20100093643A1 (priority 2006, published 2010):
# Where “and” joins values, the source holds several entries; their conditions need not be identical. Identical values can stand only once. Like-named read-outs stand apart in the source and are kept apart here.
# Tests used:
# CD-1 male mice = assay: Analgesic activity in vivo, hot plate method; design: species or system mouse
# Procedure: Male Swiss albino mice (CD1), weighing 20-22 g were used throughout the study. The animals were housed in solid bottom polycarbonate cages with access to standard laboratory diet (Laboratory Rodent Diet PK-120) and tap water ad libitum, under controlled environmental conditions (temperature:18-26° C., 8 a.m. to 8 p.m. light-dark cycle). Mice were tested only once.
# The Hot-plate-meter represents the thermostatic controllable, electro-heated up surface limited by transparent walls (L: 25 cm, W: 25 cm, H: 35 cm). The forward panel of the device is equipped by buttons for the control of time and a temperature mode (Columbus Instruments).
# The i.v. administration was performed via tail vein as a bolus injection. The doses for all animals were calculated on the basis of the last value of the individual body weight.
# The animals accurately were placed on the preheated hot plate (55±0.5° C.) after i.v. injection of saline or peptides and the latencies to first paw licking and first jumping were measured. The other behavioral reactions were ignored. The animals were removed from a hot surface after the first jumping. A cut-off time of 180 s was used to avoid tissue damage.
# To evaluate the hot-plate test responses, the control latencies (t0) and test latencies (t1) were determined after injection of saline or peptides, respectively. The percentage of the maximal possible effect (% MPE) was calculated as % MPE=(t1−t0)/(t2−t0)×100, where the cut-off time (t2) was 180 s.
# The latency for the first jumping is considered as the most indicative in the hot-plate test. The area under the time-response curve was calculated by methods described elsewhere (Cicero and Meyer, 1973), to assess the magnitude of antinociception (FIG. 5, see appendix).
# The median analgesic dose (ED50) also has been calculated for this parameter.
# [1] = test system: peripheral opiate receptors, mouse vas deferens (MVD); assay: MVD bioassay, suppression of electrically induced contraction
# Procedure: Brit. J. Pharmacol., 35, 10-28]. The longitudinal muscle of ileum from guinea pig of any sex (weight 350-500 g) was carefully separated from underlying circular muscle and placed into a small bath with Krebs solution at 36° C.
# The solution was constantly aerated. A constant load of 0.2 g was applied to the tissue. The tissue was stimulated by means of the ring platinum electrodes by single impulses of […] duration with 0.1 Hz frequency. […] Vas deferens of mice (weight 27 to 30 g) were placed into a bath with modified Krebs solution (not containing magnesium sulphate) at 31° C. The substances under study were dissolved in distilled water. The inhibiting activity of the compounds was determined by accumulating doses, adding increasing concentrations of the compounds without washing. The activity of the preparations was expressed as IC50 in nmol/l. The results obtained in 8-10 tests were statistically processed using Student's criterion.
# [2] = test system: rats with ligature of coronary arteries; type: in vivo, rat; design: myocardial necrosis size: unit not given here; conditions: for CPK / HF-CPK / Lactate: blood; for Lethality %: rats with sharp myocardial ischemia
# outbreed male mice = assay: Analgesic activity in vivo, tail pinch method; design: species or system mouse
# Procedure: Analgesic activity of enkephalin analogues was determined by a “tail pinch” method [Ueda H.; Amano H.; Shiomi H.; Takagi H. (1979). Eur. J. Pharmacol., 56, 265-268]. […] Ten mice were used in each experiment.
# The studied substances were dissolved in sterile physiological solution and injected in J-shaped needles into the brain of conscious mice at a dose of 10 μl. Control animals received 10 μl of sterile physiological solution. Intravenous administration was into the tail vein. Analgesic activity was tested by pinching the mouse tail with an artery clip with 200 g pressure. The mice who bit the clip within one second after application of pinching were selected for assays. Analgesic activity was defined as latency on the biting response greater than 6 sec. The analgesic tests were performed 5, 15, 30, 60 and 90 min after administration and then every 30 min until the analgesic reaction was stopped. The analgesic activity of the peptides was expressed as a percentage of mice not showing the biting response.
# [3] = test system: BALB mice under normobaric hypoxic hypoxia; assay: Antihypoxic action, lifetime of mice under normobaric hypoxic hypoxia; type: in vivo, mouse
# Procedure: Antihypoxic action of the new enkephalin analogue (1) was determined by the measurement of lifetime duration in mice under the normobaric hypoxic hypoxia conditions.
# The experiments were conducted on BALB-bread mice weighing 20 to 22 g. The normobaric hypoxic hypoxia conditions were modelled by placing the animals in hermetic camera, containing Ca(OH)2 to absorb the excess of carbon dioxide. The substances studied were injected intraperitoneally 1 min. before the placing of animals in the hermetic camera. The peptides were used at doses 1.0 mg/kg. […] Sodium oxybutyrate at highest therapeutic dose was used as comparative compound. The lifetime was estimated as the time when the animals stopped making breathing movements.
# [4] = target: T1, peripheral opiate receptors, guinea pig ileum (GPI, predominantly μ-type of opioid receptor) (Cavia porcellus, UniProt A0ACM8Q262); conditions: GPI assay
# T1 construct: other: guinea pig ileum longitudinal muscle, electrical stimulation; GPI Relative potency, %; other: GPI assay
# T1 sequence (A0ACM8Q262 1-400): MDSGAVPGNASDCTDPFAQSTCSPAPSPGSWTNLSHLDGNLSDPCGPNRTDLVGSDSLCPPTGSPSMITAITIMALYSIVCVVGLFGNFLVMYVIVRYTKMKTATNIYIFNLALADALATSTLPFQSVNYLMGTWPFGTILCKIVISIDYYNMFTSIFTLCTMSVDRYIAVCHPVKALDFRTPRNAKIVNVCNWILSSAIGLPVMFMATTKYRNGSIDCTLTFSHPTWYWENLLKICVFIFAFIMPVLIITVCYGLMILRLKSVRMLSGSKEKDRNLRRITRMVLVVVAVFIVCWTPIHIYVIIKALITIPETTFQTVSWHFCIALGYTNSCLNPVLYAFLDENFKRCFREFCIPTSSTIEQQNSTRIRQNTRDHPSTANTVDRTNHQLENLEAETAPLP
# [5] = test system: peripheral opiate receptors, guinea pig ileum (GPI, predominantly μ-type of opioid receptor); conditions: ratio of relative potencies GPI to MVD
# [6] = 6 hours after ligature, compound (1) 0.05 mg/kg
# [7] = 24 hours after ligature, compound (1) 0.05 mg/kg, nitroglycerine highest therapeutic dose
smiles,measurement,setting,value
"CC(=O)NCCCC(NC(=O)C(N)Cc1ccc(O)cc1)C(=O)NCC(=O)NC(Cc1ccc([N+](=O)[O-])cc1)C(N)=O [Peptide 1, Tyr-(N^δ—Ac)-D-Orn-Gly-Phe(p-NO2)—NH2]",ED50 (jump latency),"CD-1 male mice; intravenous administration, time point of 15 min",1.27 mg/kg
same,analgesic activity exceeding that of morphine,"CD-1 male mice; intravenous, from ED50 at 15 min",2 times
same,"MVD Relative potency, %",[1]; [Leu^5]-enkephalin = 100,52%
same,IC50,"[1]; mouse vas deferens, electrical stimulation",0.0385 ± 0.0201 µM
same,myocardial necrosis size,"[2]; 0.05 mg/kg i.p. 30 min after coronary occlusion, observation time 6 hours",40.70 ± 1.52
same,myocardial necrosis size,"[2]; 0.05 mg/kg i.p. 30 min after coronary occlusion, observation time 12 hours",47.51 ± 1.63
same,myocardial necrosis size,"[2]; 0.5 mg/kg i.p. 30 min after coronary occlusion, observation time 6 hours",40.05 ± 1.93
same,myocardial necrosis size,"[2]; 0.5 mg/kg i.p. 30 min after coronary occlusion, observation time 12 hours",46.64 ± 2.20
same,Glycogen of heart,[2]; [6],1.00 ± 0.12 g/kg
same,Glycogen of liver,[2]; [6],6.98 ± 1.02 g/kg
same,Glycogen of heart,"[2]; 24 hours after ligature, compound (1) 0.05 mg/kg",1.11 ± 0.17 g/kg
same,CPK,[2]; [6],93.5 ± 5.3 units/l
same,HF-CPK,[2]; [6],15.3 ± 0.7 units/l
same,Lactate,[2]; [6],1.61 ± 0.45 mmol/L
same,CPK,[2]; [7],86.6 ± 4.9 units/l
same,HF-CPK,[2]; [7],12.3 ± 0.7 units/l
same,Lactate,[2]; [7],1.70 ± 0.09 mmol/L
same,Lethality %,[2]; 0.05 mg/kg,33%
same,Lethality %,[2]; 0.5 mg/kg,27%
same,Duration of analgesic effect at ED60-80,outbreed male mice; intracisternal administration,120 min
same,ED50 nmol/animal (dose interval),outbreed male mice; intracisternal administration,0.02 (0.01-0.04) nmol/animal
same,Relative analgesic activity morphine = 1,outbreed male mice; intracisternal administration,60
same,Duration of analgesic effect at ED60-80,outbreed male mice; intravenous administration,60 min
same,ED50 μmol/kg (dose interval),outbreed male mice; intravenous administration,8.0 (0-25) μmol/kg
same,Relative analgesic activity morphine = 1,outbreed male mice; intravenous administration,2 and 2.2
same,lifetime longer than in the control experiments,[3]; 1.0 mg/kg i.p.,57%
same,Duration of life,[3]; 1.0 mg/kg i.p. 1 min before hermetic chamber,16.9 ± 1.1 min
same,activity compared with morphine,[4],more active than morphine by one order
same,GPIrel/MVDrel,[5],46
